Laboratory results taken from PubChem BioAssay (NCI).
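All cell lines were grown in 96-well plates and treated with compound for 48 hours. Definition used: TGI = concentration required for complete inhibition of growth.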

These molecules were tested on SK-OV-3 ovarian (assay: NCI-60 cell line screen, 48 h).

Structure (SMILES) | TGI [µM]
COc1ccc(Cc2nccc3cc(OC)c(OC)cc23)cc1 | > 100
N#CNC1=NC(Cc2ccccc2)C(=O)N1CCc1c[nH]c2ccccc12 (stereo unspecified) | 80.2

Each molecule was assayed on SF-539 CNS (assay: NCI-60 cell line screen, 48 h).

Structure (SMILES) | TGI [µM]
CCC1(O)C(=O)OCc2c1cc1n(c2=O)Cc2cc3cc(OC)c(OC)cc3nc2-1 (stereo unspecified) | 35.2
FC(F)(F)c1cccc(C=NC23CC4CC(CC(C4)C2)C3)c1 | > 100
O=C(CCC(=O)Nc1ccc(Cl)c(Cl)c1)CC(=O)c1ccc(Cl)cc1 | > 100
COc1ccc(Cc2nccc3cc(OC)c(OC)cc23)cc1 | > 100
N#CNC1=NC(Cc2ccccc2)C(=O)N1CCc1c[nH]c2ccccc12 (stereo unspecified) | 83.2

The molecules below were run on MALME-3M melanoma (assay: NCI-60 cell line screen, 48 h).

Structure (SMILES) | TGI [µM]
CCC1(O)C(=O)OCc2c1cc1n(c2=O)Cc2cc3cc(OC)c(OC)cc3nc2-1 (stereo unspecified) | > 100
FC(F)(F)c1cccc(C=NC23CC4CC(CC(C4)C2)C3)c1 | > 100
O=C(CCC(=O)Nc1ccc(Cl)c(Cl)c1)CC(=O)c1ccc(Cl)cc1 | > 100
COc1ccc(Cc2nccc3cc(OC)c(OC)cc23)cc1 | > 100

Each molecule was assayed on XF 498 CNS (assay: NCI-60 cell line screen, 48 h).

Structure (SMILES) | TGI [µM]
CCC1(O)C(=O)OCc2c1cc1n(c2=O)Cc2cc3cc(OC)c(OC)cc3nc2-1 (stereo unspecified) | > 100
FC(F)(F)c1cccc(C=NC23CC4CC(CC(C4)C2)C3)c1 | > 100
O=C(CCC(=O)Nc1ccc(Cl)c(Cl)c1)CC(=O)c1ccc(Cl)cc1 | > 100
COc1ccc(Cc2nccc3cc(OC)c(OC)cc23)cc1 | 83.6
N#CNC1=NC(Cc2ccccc2)C(=O)N1CCc1c[nH]c2ccccc12 (stereo unspecified) | 68.4

The molecules below were run on HCC-2998 colon (assay: NCI-60 cell line screen, 48 h).

Structure (SMILES) | TGI [µM]
CCC1(O)C(=O)OCc2c1cc1n(c2=O)Cc2cc3cc(OC)c(OC)cc3nc2-1 (stereo unspecified) | > 100
FC(F)(F)c1cccc(C=NC23CC4CC(CC(C4)C2)C3)c1 | > 100
O=C(CCC(=O)Nc1ccc(Cl)c(Cl)c1)CC(=O)c1ccc(Cl)cc1 | > 100
COc1ccc(Cc2nccc3cc(OC)c(OC)cc23)cc1 | > 100
N#CNC1=NC(Cc2ccccc2)C(=O)N1CCc1c[nH]c2ccccc12 (stereo unspecified) | 48.6

Each molecule was assayed on HT29 colon (assay: NCI-60 cell line screen, 48 h).

Structure (SMILES) | TGI [µM]
CCC1(O)C(=O)OCc2c1cc1n(c2=O)Cc2cc3cc(OC)c(OC)cc3nc2-1 (stereo unspecified) | > 100
FC(F)(F)c1cccc(C=NC23CC4CC(CC(C4)C2)C3)c1 | > 100
O=C(CCC(=O)Nc1ccc(Cl)c(Cl)c1)CC(=O)c1ccc(Cl)cc1 | > 100
COc1ccc(Cc2nccc3cc(OC)c(OC)cc23)cc1 | > 100
N#CNC1=NC(Cc2ccccc2)C(=O)N1CCc1c[nH]c2ccccc12 (stereo unspecified) | > 100

These molecules were tested on K-562 leukemia (assay: NCI-60 cell line screen, 48 h).

Structure (SMILES) | TGI [µM]
CCC1(O)C(=O)OCc2c1cc1n(c2=O)Cc2cc3cc(OC)c(OC)cc3nc2-1 (stereo unspecified) | > 100
FC(F)(F)c1cccc(C=NC23CC4CC(CC(C4)C2)C3)c1 | > 100
O=C(CCC(=O)Nc1ccc(Cl)c(Cl)c1)CC(=O)c1ccc(Cl)cc1 | > 100
COc1ccc(Cc2nccc3cc(OC)c(OC)cc23)cc1 | > 100
N#CNC1=NC(Cc2ccccc2)C(=O)N1CCc1c[nH]c2ccccc12 (stereo unspecified) | > 100

The molecules below were run on A498 renal (assay: NCI-60 cell line screen, 48 h).

Structure (SMILES) | TGI [µM]
CCC1(O)C(=O)OCc2c1cc1n(c2=O)Cc2cc3cc(OC)c(OC)cc3nc2-1 (stereo unspecified) | > 100
FC(F)(F)c1cccc(C=NC23CC4CC(CC(C4)C2)C3)c1 | > 100
O=C(CCC(=O)Nc1ccc(Cl)c(Cl)c1)CC(=O)c1ccc(Cl)cc1 | > 100
COc1ccc(Cc2nccc3cc(OC)c(OC)cc23)cc1 | > 100

These molecules were tested on CCRF-CEM leukemia (assay: NCI-60 cell line screen, 48 h).

Structure (SMILES) | TGI [µM]
CCC1(O)C(=O)OCc2c1cc1n(c2=O)Cc2cc3cc(OC)c(OC)cc3nc2-1 (stereo unspecified) | > 100
O=C(CCC(=O)Nc1ccc(Cl)c(Cl)c1)CC(=O)c1ccc(Cl)cc1 | > 100
COc1ccc(Cc2nccc3cc(OC)c(OC)cc23)cc1 | > 100
N#CNC1=NC(Cc2ccccc2)C(=O)N1CCc1c[nH]c2ccccc12 (stereo unspecified) | 74.6

These molecules were tested on RPMI-8226 leukemia (assay: NCI-60 cell line screen, 48 h).

Structure (SMILES) | TGI [µM]
CCC1(O)C(=O)OCc2c1cc1n(c2=O)Cc2cc3cc(OC)c(OC)cc3nc2-1 (stereo unspecified) | > 100
FC(F)(F)c1cccc(C=NC23CC4CC(CC(C4)C2)C3)c1 | > 100
O=C(CCC(=O)Nc1ccc(Cl)c(Cl)c1)CC(=O)c1ccc(Cl)cc1 | > 100
COc1ccc(Cc2nccc3cc(OC)c(OC)cc23)cc1 | > 100
N#CNC1=NC(Cc2ccccc2)C(=O)N1CCc1c[nH]c2ccccc12 (stereo unspecified) | > 100

These molecules were tested on 786-0 renal (assay: NCI-60 cell line screen, 48 h).

Structure (SMILES) | TGI [µM]
CCC1(O)C(=O)OCc2c1cc1n(c2=O)Cc2cc3cc(OC)c(OC)cc3nc2-1 (stereo unspecified) | 54.2
FC(F)(F)c1cccc(C=NC23CC4CC(CC(C4)C2)C3)c1 | > 100
O=C(CCC(=O)Nc1ccc(Cl)c(Cl)c1)CC(=O)c1ccc(Cl)cc1 | > 100
COc1ccc(Cc2nccc3cc(OC)c(OC)cc23)cc1 | > 100
N#CNC1=NC(Cc2ccccc2)C(=O)N1CCc1c[nH]c2ccccc12 (stereo unspecified) | 42.1

The molecules below were run on UO-31 renal (assay: NCI-60 cell line screen, 48 h).

Structure (SMILES) | TGI [µM]
CCC1(O)C(=O)OCc2c1cc1n(c2=O)Cc2cc3cc(OC)c(OC)cc3nc2-1 (stereo unspecified) | > 100
FC(F)(F)c1cccc(C=NC23CC4CC(CC(C4)C2)C3)c1 | > 100
O=C(CCC(=O)Nc1ccc(Cl)c(Cl)c1)CC(=O)c1ccc(Cl)cc1 | > 100
COc1ccc(Cc2nccc3cc(OC)c(OC)cc23)cc1 | 90.8
N#CNC1=NC(Cc2ccccc2)C(=O)N1CCc1c[nH]c2ccccc12 (stereo unspecified) | 64.5

What follows are molecules tested on UACC-62 melanoma (assay: NCI-60 cell line screen, 48 h).

Structure (SMILES) | TGI [µM]
O=C(CCC(=O)Nc1ccc(Cl)c(Cl)c1)CC(=O)c1ccc(Cl)cc1 | > 100
COc1ccc(Cc2nccc3cc(OC)c(OC)cc23)cc1 | > 100
N#CNC1=NC(Cc2ccccc2)C(=O)N1CCc1c[nH]c2ccccc12 (stereo unspecified) | 86

These molecules were tested on HCT-15 colon (assay: NCI-60 cell line screen, 48 h).

Structure (SMILES) | TGI [µM]
FC(F)(F)c1cccc(C=NC23CC4CC(CC(C4)C2)C3)c1 | > 100
O=C(CCC(=O)Nc1ccc(Cl)c(Cl)c1)CC(=O)c1ccc(Cl)cc1 | > 100
COc1ccc(Cc2nccc3cc(OC)c(OC)cc23)cc1 | > 100
N#CNC1=NC(Cc2ccccc2)C(=O)N1CCc1c[nH]c2ccccc12 (stereo unspecified) | > 100
